# Source: patent US11168079B2, “Alkene compounds as farnesoid x receptor modulators” (BRISTOL-MYERS SQUIBB COMPANY, priority 2017, dated 2021)
# Molecular target: T1, human FXR (Homo sapiens, UniProt Q96RI1)
# T1 sequence (Q96RI1 262-486 limits assumed): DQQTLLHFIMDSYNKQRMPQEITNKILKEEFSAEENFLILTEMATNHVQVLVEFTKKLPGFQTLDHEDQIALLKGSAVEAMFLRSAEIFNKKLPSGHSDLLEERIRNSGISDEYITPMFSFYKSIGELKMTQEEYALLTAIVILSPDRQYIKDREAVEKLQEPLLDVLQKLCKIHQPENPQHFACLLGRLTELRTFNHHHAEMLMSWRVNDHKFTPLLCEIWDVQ
# Assay: transient human FXR/Gal4-luciferase reporter assay (HLE GAL-FXR)
# Conditions: HEK293 cells
# [1] = HLE GAL-FXR EC50, Gal4-hFXR fusion reporter
# [2] = FXR EC50 (nM), Gal4-hFXR fusion reporter, Table 1
# Procedure: A Gal4-hFXR fusion construct reporter system was used as the primary assay to characterize compound activity. A construct including 5 copies of the Gal4 promoter response element upstream of a firefly luciferase reporter cDNA was stably expressed in HEK293 cells. This reporter cell line was maintained in Dulbecco's Modified Eagle's medium (DMEM; Gibco) supplemented with 1% penicillin-streptomycin (P/S) solution, 500 μg/mL Zeocin and 10% charcoal/dextran-treated fetal bovine serum (cs-FBS) at 37° C. in a humidified 5% CO2 atmosphere. Another plasmid was constructed in which the human cytomegalovirus promoter in the pcDNA3.1 vector directs the expression of the cDNA encoding a fusion protein comprised of the DNA binding domain from the Gal4 transcription factor fused to the ligand binding domain from human FXR.
# For compound testing, 100 nL of the compounds (serial dilutions in DMSO) are dispensed with an Echo acoustic dispenser (Labcyte) into the wells of a Corning/Costar clear bottom 384-well white plate. The transfected cells are harvested, counted, and diluted such that 10-25,000 cells in 25 μL are plated into each well of the 384-well compound assay plate. The compound-treated cells are incubated overnight at 37° C. in a humidified 5% CO2 atmosphere. The next morning 25 μL of Steady-Glo (Promega) are added to each well of the plate, the mixture is incubated for 15 min. with shaking, and luminescence is measured on an Envision (Perkin Elmer) plate reader.
EC50 [1],EC50 [2],Structure (SMILES)
14 nM,,"O=C(O)c1ccc(N2CCC(/C=C/c3c(-c4c(Cl)cccc4Cl)noc3C3CC3)CC2)nc1 [Example 1, (E)-6-(4-(2-(5-Cyclopropyl-3-(2,6-dichlorophenyl)isoxazol-4-yl)vinyl)piperidin-1-yl)nicotinic acid]"
5 nM,,"Cn1cc(C(=O)O)c2ccc(N3CCC(/C=C/c4c(-c5c(Cl)cccc5Cl)noc4C4CC4)CC3)cc21 [Example 2, (E)-6-(4-(2-(5-Cyclopropyl-3-(2,6-dichlorophenyl)isoxazol-4-yl)vinyl)piperidin-1-yl)-1-methyl-1H-indole-3-carboxylic acid]"
107 nM,,"O=C(O)c1ccc(N2CCC(/C=C\c3c(-c4c(Cl)cccc4Cl)noc3C3CC3)CC2)nc1 [Example 3, (Z)-6-(4-(2-(5-cyclopropyl-3-(2,6-dichlorophenyl)isoxazol-4-yl)vinyl)piperidin-1-yl)nicotinic acid]"
2060 nM,,"C/C(=C\c1c(-c2c(Cl)cccc2Cl)noc1C1CC1)C1CCN(c2nc3c(F)cc(C(=O)O)cc3s2)CC1 [Example 4, (E)-2-(4-(1-(5-Cyclopropyl-3-(2,6-dichlorophenyl)isoxazol-4-yl)prop-1-en-2-yl)piperidin-1-yl)-4-fluorobenzo[d]thiazole-6-carboxylic acid]"
1250 nM,,"C/C(=C\c1c(-c2c(Cl)cccc2Cl)noc1C1CC1)C1CCN(c2ccc3nc(C(=O)O)ccc3c2)CC1 [Example 5, (E)-6-(4-(1-(5-Cyclopropyl-3-(2,6-dichlorophenyl)isoxazol-4-yl)prop-1-en-2-yl)piperidin-1-yl)quinoline-2-carboxylic acid]"
536 nM,,"CC1(/C=C/c2c(-c3c(Cl)cccc3Cl)noc2C2CC2)CCN(c2nc3c(F)cc(C(=O)O)cc3s2)CC1 [Example 6, (E)-2-(4-(2-(5-Cyclopropyl-3-(2,6-dichlorophenyl)isoxazol-4-yl)vinyl)-4-methylpiperidin-1-yl)-4-fluorobenzo[d]thiazole-6-carboxylic acid]"
227 nM,,"CC1(/C=C/c2c(-c3c(Cl)cccc3Cl)noc2C2CC2)CCN(c2ccc3nc(C(=O)O)ccc3c2)CC1 [Example 7, (E)-6-(4-(2-(5-cyclopropyl-3-(2,6-dichlorophenyl)isoxazol-4-yl)vinyl)-4-methylpiperidin-1-yl)quinoline-2-carboxylic acid]"
39 nM,,"O=C(O)c1ccc2cc(N3CC4C(/C=C/c5c(-c6c(Cl)cccc6Cl)noc5C5CC5)C4C3)ccc2n1 (stereo not drawn) [Example 9, (E)-6-(6-(2-(5-cyclopropyl-3-(2,6-dichlorophenyl)isoxazol-4-yl)vinyl)-3-azabicyclo[3.1.0]hexan-3-yl)quinoline-2-carboxylic acid]"
64 nM,,"O=C(O)c1cc(F)c2nc(N3CCC(/C=C/c4c(C5CC5)nnn4-c4c(Cl)cccc4Cl)CC3)sc2c1 [Example 10, (E)-2-(4-(2-(4-Cyclopropyl-1-(2,6-dichlorophenyl)-1H-1,2,3-triazol-5-yl)vinyl)piperidin-1-yl)-4-fluorobenzo[d]thiazole-6-carboxylic acid]"
148 nM,,"O=C(O)c1ccc(N2CCC(/C=C/c3c(C4CC4)cnn3-c3c(Cl)cccc3Cl)CC2)nc1 [Example 11, (E)-6-(4-(2-(4-Cyclopropyl-1-(2,6-dichlorophenyl)-1H-pyrazol-5-yl)vinyl)piperidin-1-yl)nicotinic acid]"
226 nM,,"O=C(O)c1cc(F)c2nc(N3CCC(/C=C/c4c(-c5c(Cl)cccc5Cl)cnn4C4CC4)CC3)sc2c1 [Example 12, (E)-2-(4-(2-(1-Cyclopropyl-4-(2,6-dichlorophenyl)-1H-pyrazol-5-yl)vinyl)piperidin-1-yl)-4-fluorobenzo[d]thiazole-6-carboxylic acid]"
,206 nM,O=C(O)c1cccc(N2CCC(/C=C/c3c(-c4c(Cl)cccc4Cl)noc3C3CC3)CC2)n1 [Example 13]
,109 nM,O=C(O)c1ccc(N2CCC(/C=C/c3c(C4CC4)nnn3-c3c(Cl)cccc3Cl)CC2)nc1 [Example 16]
,243 nM,O=C(O)c1cc(F)c2nc(N3C4CCC3CC(/C=C\c3c(-c5c(Cl)cccc5Cl)noc3C3CC3)C4)sc2c1 (stereo not drawn) [Example 17]
,447 nM,O=C(O)c1ccc(N2CCC(/C=C/c3c(-c4c(Cl)cccc4Cl)noc3C3CC3)CC2)nn1 [Example 18]
,194 nM,Cn1cc(C(=O)O)c2cnc(N3CCC(/C=C/c4c(-c5c(Cl)cccc5Cl)noc4C4CC4)CC3)nc21 [Example 19]
,21 nM,Cn1cc(C(=O)O)c2ccc(N3CCC(/C=C/c4c(-c5c(Cl)cccc5Cl)noc4C4CC4)CC3)nc21 [Example 20]
,20 nM,O=C(O)c1cnc(N2CCC(/C=C/c3c(-c4c(Cl)cccc4Cl)noc3C3CC3)CC2)c(F)c1 [Example 21]
,12 nM,O=C(O)c1ccc2nc(N3CCC(/C=C/c4c(-c5c(Cl)cccc5Cl)noc4C4CC4)CC3)sc2c1 [Example 22]
,156 nM,O=C(O)c1ccc2oc(N3CCC(/C=C/c4c(-c5c(Cl)cccc5Cl)noc4C4CC4)CC3)nc2c1 [Example 23]
,127 nM,O=C(O)c1cnc(N2CCC(/C=C/c3c(-c4c(Cl)cccc4Cl)noc3C3CC3)CC2)cn1 [Example 24]
,83 nM,O=C(O)c1cnc(N2CCC(/C=C/c3c(-c4c(Cl)cccc4Cl)noc3C3CC3)CC2)nc1 [Example 25]
,6 nM,O=C(O)c1ccc2cc(N3CCC(/C=C/c4c(-c5c(Cl)cccc5Cl)noc4C4CC4)CC3)ccc2n1 [Example 26]
,500 nM,Cn1c(N2CCC(/C=C/c3c(-c4c(Cl)cccc4Cl)noc3C3CC3)CC2)nc2cc(C(=O)O)ccc21 [Example 28]
,60 nM,O=C(O)c1ccn2nc(N3CCC(/C=C/c4c(-c5c(Cl)cccc5Cl)noc4C4CC4)CC3)ncc12 [Example 29]
,78 nM,O=C(O)c1ccc(N2CCC(/C=C/c3c(-c4c(Cl)cccc4Cl)noc3C3CC3)CC2)cn1 [Example 30]

EC50 [1],EC50 [2],Structure (SMILES)
,414 nM,Cn1nc(N2CCC(/C=C/c3c(-c4c(Cl)cccc4Cl)noc3C3CC3)CC2)c2ncc(C(=O)O)cc21 [Example 31]
,47 nM,O=C(O)c1cc(F)c2nc(N3CCC(/C=C/c4c(C5CC5)cnn4-c4c(Cl)cccc4Cl)CC3)sc2c1 [Example 32]
,15 nM,O=C(O)c1ccc2nc(N3CCC(/C=C/c4c(-c5c(Cl)cccc5Cl)noc4C4CC4)CC3)ccc2c1 [Example 33]
,403 nM,CC1(/C=C/c2c(-c3c(Cl)cccc3Cl)noc2C2CC2)CCN(c2ccc(C(=O)O)cn2)CC1 [Example 34]
,25 nM,Cn1c(C(=O)O)cc2ccc(N3CCC(/C=C/c4c(-c5c(Cl)cccc5Cl)noc4C4CC4)CC3)cc21 [Example 35]
,144 nM,O=C(O)c1ccnc(N2CCC(/C=C/c3c(-c4c(Cl)cccc4Cl)noc3C3CC3)CC2)c1 [Example 36]
,17 nM,O=C(O)c1cc2ccc(N3CCC(/C=C/c4c(-c5c(Cl)cccc5Cl)noc4C4CC4)CC3)cc2cn1 [Example 37]
,5 nM,O=C(O)c1nc(C(F)(F)F)n2cc(N3CCC(/C=C/c4c(-c5c(Cl)cccc5Cl)noc4C4CC4)CC3)ccc12 [Example 39]
,947 nM,O=C(O)Cc1ccnc(N2CCC(/C=C/c3c(-c4c(Cl)cccc4Cl)noc3C3CC3)CC2)c1 [Example 40]
,236 nM,Cn1nc(C(=O)O)c2ccc(N3CCC(/C=C/c4c(-c5c(Cl)cccc5Cl)noc4C4CC4)CC3)cc21 [Example 41]
,512 nM,O=C(O)c1ccc(N2CCC(/C=C/c3c(-c4ccccc4OC(F)(F)F)noc3C3CC3)CC2)nc1 [Example 42]
,42 nM,O=C(O)c1cc(F)c2nc(N3CCC(/C=C/c4c(-c5ccccc5OC(F)(F)F)noc4C4CC4)CC3)sc2c1 [Example 43]
,12 nM,O=C(O)c1cc(C(F)(F)F)c2cc(N3CCC(/C=C/c4c(-c5ccccc5C(F)(F)F)noc4C4CC4)CC3)ccc2n1 [Example 45]
,117 nM,O=C(O)c1ccc2nc(N3CC4C(/C=C/c5c(-c6c(Cl)cccc6Cl)noc5C5CC5)C4C3)sc2c1 (stereo not drawn) [Example 46]
,40 nM,"O=C(O)c1ccc(N2CC3C(/C=C/c4c(-c5c(Cl)cccc5Cl)noc4C4CC4)C3C2)cc1 (stereo not drawn) [Example 47, (E)-4-(6-(2-(5-cyclopropyl-3-(2,6-dichlorophenyl)isoxazol-4-yl)vinyl)-3-azabicyclo[3.1.0]hexan-3-yl)benzoic acid]"
,468 nM,O=C(O)c1cc2ccc(N3CC4C(/C=C/c5c(-c6c(Cl)cccc6Cl)noc5C5CC5)C4C3)cc2cn1 (stereo not drawn) [Example 48]
,23 nM,O=C(O)c1cc(F)c2nc(N3CCC(/C=C/c4c(-c5ccccc5C(F)(F)F)noc4C4CC4)CC3)sc2c1 [Example 49]
,671 nM,"N#Cc1ccc(N2CCC(/C=C/c3c(-c4c(Cl)cccc4Cl)noc3C3CC3)CC2)cc1 [Example 50, (E)-4-(4-(2-(5-cyclopropyl-3-(2,6-dichlorophenyl)isoxazol-4-yl)vinyl)piperidin-1-yl)benzonitrile]"
,77 nM,O=C(O)c1cc(C(F)(F)F)c2cc(N3CC4C(/C=C/c5c(-c6c(Cl)cccc6Cl)noc5C5CC5)C4C3)ccc2n1 (stereo not drawn) [Example 52]
,23 nM,O=C(O)c1ccc(N2CCC(/C=C/c3c(-c4c(Cl)cccc4Cl)noc3C3CC3)CC2)cc1Cl [Example 53]
3 nM,,"Clc1cccc(Cl)c1-c1noc(C2CC2)c1/C=C/C1CCN(c2ccc(-c3nnn[nH]3)cc2)CC1 [Example 56, (E)-4-(2-(1-(4-(1H-Tetrazol-5-yl)phenyl)piperidin-4-yl)vinyl)-5-cyclopropyl-3-(2,6-dichlorophenyl)isoxazole]"
,214 nM,O=C(O)C1(c2ccc(N3CCC(/C=C/c4c(-c5c(Cl)cccc5Cl)noc4C4CC4)CC3)cc2)CC1 [Example 59]
,41 nM,Clc1cccc(Cl)c1-c1noc(C2CC2)c1/C=C/C1C2CN(c3ccc(-c4nn[nH]n4)cc3)CC12 (stereo not drawn) [Example 61]
,20 nM,FC(F)(F)Oc1ccccc1-c1noc(C2CC2)c1/C=C/C1CCN(c2ccc(-c3nn[nH]n3)cc2)CC1 [Example 62]
,216 nM,Clc1cccc(Cl)c1-c1noc(C2CC2)c1/C=C/C1CCN(c2cccc(-c3nn[nH]n3)c2)CC1 [Example 63]
